In article PMC4269550, “Lead Optimization of a Pyrazole Sulfonamide Series of Trypanosoma bruceiN-Myristoyltransferase Inhibitors: Identification and Evaluation of CNS Penetrant Compounds as Potential Treatments for Stage 2 Human African Trypanosomiasis” (Journal of Medicinal Chemistry, 2014):
Where two headings read alike, the source gives them in different places.

Key:
in vitro = assay type: cell-based, human; conditions: human
[1] = Intrinsic clearance (Cli), mouse liver microsomes; assay type: in vitro ADME; conditions: for Cli (mouse): mouse liver microsomes; for Cli: mouse microsomes
[2] = tested on: MRC5, human lung fibroblast cells; assay: in vitro; assay type: cell-based
[3] = tested on: T. b. brucei, BSF427, VSG118; assay: Cell viability assay, trypanosome; assay type: cell-based

SMILES	Cli (mouse) [1] [mL min^–1 g^–1]	other results
Cc1nn(C)c(C)c1NS(=O)(=O)c1c(Cl)cc(Br)cc1Cl [compound 7, 4-bromo-2,6-dichloro-N-(1,3,5-trimethyl-1H-pyrazol-4-yl)-benzenesulfonamide]	14	EC50 at 69 h (in vitro): > 50 µM
Cc1nn(C)c(C)c1NS(=O)(=O)c1c(Cl)cc(C#CCN2CCN(C)CC2)cc1Cl [compound 13]		EC50 at 69 h (in vitro; MRC-5 EC50): > 50 µM
Cc1nn(C)c(C)c1NS(=O)(=O)c1c(Cl)cc(CCCN2CCN(C)CC2)cc1Cl [compound 14]	1.7	Cli [1]: 1.7 mL/min/g
Cc1nn(C)c(C)c1NS(=O)(=O)c1ccc(CCCN2CCN(C)CC2)cc1 [compound 15]		EC50 at 69 h (in vitro; MRC-5 EC50): > 50 µM
Cc1nn(C)c(C)c1NS(=O)(=O)c1c(Cl)cc(CCCC2CCN(C)CC2)cc1Cl [compound 16]	4.3	Cli [1]: 4.3 mL/min/g
Cc1nn(C)c(C)c1NS(=O)(=O)c1ccc(CCCC2CCNCC2)cc1 [compound 19]		EC50 at 69 h (in vitro; MRC-5 EC50): > 50 µM
Cc1nn(C)c(C)c1N(C)[S+](=O)([O-])c1c(Cl)cc(-c2ccnc(N3CCNCC3)c2)cc1Cl [compound 29]	17	
Cc1nn(C)c(C)c1N(C)[S+](=O)([O-])c1ccc(-c2ccnc(N3CCNCC3)c2)cc1 [compound 30]	1.3	
Cc1nn(C)c(C)c1NS(=O)(=O)c1ccc(-c2cccc(CN3CCN(C)CC3)c2)cc1 [compound 31]	1.2	
Cc1nn(C)c(C)c1N(C)S(=O)(=O)c1ccc(-c2cccc(CN3CCN(C)CC3)c2)cc1 [compound 32]	9.7	
Cc1nn(C)c(C)c1N(C)S(=O)(=O)c1c(Cl)cc(CCCCCn2ccnc2)cc1Cl [compound 35]	2.0	
Cc1nn(C)c(C)c1N(C)[S+](=O)([O-])c1c(Cl)cc(CCCCCCn2ccnc2)cc1Cl [compound 36]	3.0	EC50 (in vitro; MRC-5 EC50): 7.8 µM
Cc1nn(C)c(C)c1N(C)S(=O)(=O)c1ccc(CCCC2CCN(C)CC2)cc1 [compound 38]	3.7	EC50 (in vitro; read-out: MRC-5 EC50): 42 µM
Cc1nn(C)c(C)c1N(CC(F)F)S(=O)(=O)c1c(Cl)cc(CCCC2CCN(C)CC2)cc1Cl [compound 41]	2.2	Cli [1]: 2.2 mL/min/g
Cc1nn(C)c(C)c1N(C(F)F)[S+](=O)([O-])c1c(Cl)cc(CCCC2CCNCC2)cc1Cl [compound 43]	0.8	
Cc1nn(C)c(C)c1N(C(F)F)[S+](=O)([O-])c1c(Cl)cc(CCCN2CCN(C)CC2)cc1Cl [compound 44]	4.2	
Cc1nn(C)c(C)c1N(C(F)F)[S+](=O)([O-])c1c(Cl)cc(CCCCC2CCNCC2)cc1Cl [compound 45]	1.0	
Cc1nn(C)c(C)c1N(C(F)F)[S+](=O)([O-])c1c(Cl)cc(CCCOC2CCN(C)CC2)cc1Cl [compound 47]	3.7	
Cc1nn(C)c(C)c1N(C(F)F)S(=O)(=O)c1c(Cl)cc(CCCCCCN(C)C)cc1Cl [compound 48]	3.7	
Cc1nn(C)c(C)c1N(C(F)F)S(=O)(=O)c1c(Cl)cc(CCCOC[C@@H]2CCCN2C)cc1Cl [compound 49]	8.7	
Cc1nn(C)c(C)c1N(C(F)F)S(=O)(=O)c1c(Cl)cc(CCCOC[C@@H]2CCCCN2C)cc1Cl [compound 50]	9.8	
Cc1nn(C)c(C)c1N(C(F)F)S(=O)(=O)c1c(Cl)cc(CCCOC[C@H]2CCCCN2C)cc1Cl [compound 52]	14.2	
Cc1nn(C)c(C)c1NS(=O)(=O)c1ccc(-c2ccnc(N3CCNCC3)c2)cc1Cl [compound 54]		EC50 [2]: 0.25 µM
Cc1cc(-c2ccnc(N3CCNCC3)c2)ccc1S(=O)(=O)Nc1c(C)nn(C)c1C [compound 57]		EC50 [3]: 0.004 µM; EC50 [2]: 0.53 µM
